The record followed here is the SangsterLogP compilation.

Assay in one series: not given
Turning to `O=C(Nc1ncc([N+](=O)[O-])s1)c1c(F)cccc1F`, the logP (as a rule, the decadic logarithm of the partition coefficient of the neutral form, usually between octanol and water) came to 2.44.
`O=C(Nc1ncc([N+](=O)[O-])s1)c1c(F)cccc1Cl`: the logP turned out to be 3.
`O=C(Nc1ncc([N+](=O)[O-])s1)c1ccccc1F`: the logP worked out at 2.71.
Still for that read-out and setting: for `O=C(Nc1ncc([N+](=O)[O-])s1)c1cc(Cl)ccc1Cl` the value was 3.57.
The same measure, in the same setting: for `O=C(Nc1ncc([N+](=O)[O-])s1)c1ccc(F)cc1` the value was 3.12; for `CC(=O)Oc1ccccc1C(=O)Nc1ncc([N+](=O)[O-])s1`, 2.41.

The next series can be described thus: method code SF-AS, from DOI: 10.1002/(sici)1521-3838(199801)17:01<01::aid-qsar1>3.0.co;2-a.
The compound `O=C(Nc1ncc([N+](=O)[O-])s1)c1cccc(Cl)c1` displayed a logP of 3.61.
In turn, `O=C(Nc1ncc([N+](=O)[O-])s1)c1cccc(Br)c1` came in with a logP of 3.8.
On the same count and under the same terms, for `O=C(Nc1ncc([N+](=O)[O-])s1)c1cc(Cl)cc(Cl)c1` the value was 4.14; for `O=C(Nc1ncc([N+](=O)[O-])s1)c1ccc(Br)cc1`, 3.58.
Still for that read-out and setting: for `O=C(Nc1ncc([N+](=O)[O-])s1)c1ccccc1` the value was 2.97; for `O=C(Nc1ncc([N+](=O)[O-])s1)c1cc(Br)ccc1Br`, 3.75.
Same read-out and setting: for `O=C(Nc1ncc([N+](=O)[O-])s1)c1ccc(Cl)c(Cl)c1` the value was 4.14; for `O=C(Nc1ncc([N+](=O)[O-])s1)c1ccccc1Br`, 3.09; for `O=C(Nc1ncc([N+](=O)[O-])s1)c1ccc(Cl)cc1Cl`, 3.62.
